# According to ChEMBL document CHEMBL1201862, “PubChem BioAssay data set” (2004):
#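 Assay format: 96-well plates, 48-hour exposure. Here, GI50 denotes the concentration required for 50% inhibition of growth.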 The source made the active and inactive calls. Rule as the data show it: active = GI50 up to about 1.1 µM and inactive = higher.
# Legend:
# Assay in all cases: NCI tumour cell line growth inhibition, 48 h
# K562 = system: K562
# SF-268 = system: SF-268
# HCT-15 = system: HCT-15
# SW-620 = system: SW-620
# CCRF-CEM = system: CCRF-CEM
# SNB-75 = system: SNB-75
# OVCAR-3 = system: OVCAR-3
# KM12 = system: KM12
# RPMI-8226 = system: RPMI-8226
# SNB-19 = system: SNB-19
# NCI-H23 = system: NCI-H23
# HCC 2998 = system: HCC 2998
# U-251 = system: U-251
# COLO 205 = system: COLO 205
# Malme-3M = system: Malme-3M
# A498 = system: A498
# SR = system: SR
# UO-31 = system: UO-31
# EKVX = system: EKVX
# A549 = system: A549
SMILES,GI50 (K562),GI50 (SF-268),GI50 (HCT-15),GI50 (SW-620),GI50 (CCRF-CEM),GI50 (SNB-75),GI50 (OVCAR-3),GI50 (KM12),GI50 (RPMI-8226),GI50 (SNB-19),GI50 (NCI-H23),GI50 (HCC 2998),GI50 (U-251),GI50 (COLO 205),GI50 (Malme-3M),GI50 (A498),GI50 (SR),GI50 (UO-31),GI50 (EKVX),GI50 (A549)
O=[N+]([O-])c1ccc(S(=O)(=O)N=Ic2ccccc2)cc1,> 100 µM (inactive),> 100 µM (inactive),> 100 µM,> 100 µM (inactive),> 100 µM (inactive),> 100 µM (inactive),> 100 µM (inactive),> 100 µM (inactive),> 100 µM (inactive),> 100 µM (inactive),> 100 µM (inactive),> 100 µM (inactive),> 100 µM (inactive),> 100 µM (inactive),> 100 µM (inactive),> 100 µM (inactive),> 100 µM (inactive),> 100 µM (inactive),97.7 µM (inactive),> 100 µM (inactive)
COC(=O)C1=C(O)C(C(=O)OC)[C@@]2(O)[C@@H](C(=O)OC)[C@H](C)C[C@@H]1[C@@H]2C(=O)OC (stereo partly drawn),23.2 µM (inactive),,25.9 µM,,28.1 µM (inactive),22.9 µM (inactive),20 µM (inactive),23.5 µM (inactive),23.8 µM (inactive),34.2 µM (inactive),37.5 µM (inactive),16.6 µM (inactive),20.5 µM (inactive),,42.9 µM (inactive),15.5 µM (inactive),21.3 µM (inactive),21.5 µM (inactive),22.4 µM (inactive),
CCCCCCCCCCCCCCCCCCN(C)CC(COP(=O)([O-])OCC[N+](C)(C)C)OC (stereo not drawn),18.8 µM (inactive),8.17 µM (inactive),7.67 µM,17.5 µM (inactive),5.4 µM (inactive),5.93 µM (inactive),28.6 µM (inactive),3.52 µM (inactive),6.03 µM (inactive),7.29 µM (inactive),20.2 µM (inactive),6.75 µM (inactive),4.9 µM (inactive),2.91 µM (inactive),26.7 µM (inactive),13.6 µM (inactive),2.44 µM (inactive),29.5 µM (inactive),26.9 µM (inactive),22.8 µM (inactive)
CC(C)(C)N(Cc1ccoc1)C(=O)/C=C\[S+]([O-])c1ccccc1 (stereo not drawn),26.6 µM (inactive),30.1 µM (inactive),19.2 µM,10.2 µM (inactive),3.05 µM (inactive),,13.3 µM (inactive),16.6 µM (inactive),14.4 µM (inactive),28.3 µM (inactive),12.9 µM (inactive),18.5 µM (inactive),15.5 µM (inactive),22.3 µM (inactive),,31 µM (inactive),6.44 µM (inactive),14.5 µM (inactive),22.8 µM (inactive),24.3 µM (inactive)
Cc1nc2ccc(F)cc2c2c1CCS2,34.6 µM (inactive),40.6 µM (inactive),> 100 µM,> 100 µM (inactive),41 µM (inactive),38.6 µM (inactive),45.9 µM (inactive),64.9 µM (inactive),38.8 µM (inactive),30.3 µM (inactive),> 100 µM (inactive),58.1 µM (inactive),50.4 µM (inactive),38.5 µM (inactive),84.5 µM (inactive),> 100 µM (inactive),56.8 µM (inactive),65.9 µM (inactive),26.2 µM (inactive),> 100 µM (inactive)
CN(/N=C/c1ccc(Cl)cc1)C1=NCCCCN1,18.9 µM (inactive),> 100 µM (inactive),> 100 µM,> 100 µM (inactive),38.1 µM (inactive),68.7 µM (inactive),> 100 µM (inactive),50.5 µM (inactive),> 100 µM (inactive),> 100 µM (inactive),> 100 µM (inactive),44.6 µM (inactive),> 100 µM (inactive),35.1 µM (inactive),62.8 µM (inactive),56.9 µM (inactive),> 100 µM (inactive),> 100 µM (inactive),> 100 µM (inactive),93.8 µM (inactive)
COc1c(OC)c(OC)c2c(c1OC)c(=O)c1ccccc1n2C [MELICOPICINE],> 100 µM (inactive),> 100 µM (inactive),72.3 µM,> 100 µM (inactive),> 10 µM (inactive),> 100 µM (inactive),> 100 µM (inactive),12.9 µM (inactive),> 100 µM (inactive),> 100 µM (inactive),> 100 µM (inactive),> 100 µM (inactive),> 100 µM (inactive),> 100 µM (inactive),,> 100 µM (inactive),6.65 µM (inactive),> 100 µM (inactive),> 100 µM (inactive),> 100 µM (inactive)
